What was measured:
IRAK4 = IRAK4 (Homo sapiens (Human), UniProt Q9NWZ3); experiment: IRAK4 Inhibition Assay; format: biochemical; conditions: ATP 500 μM; IRAK4 0.6 nM
Method in brief: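 Mobility-shift readout: phosphorylated and unphosphorylated fluorescent peptide (1.5 μM) resolved by electrophoresis after a 60 min room-temperature reaction stopped with EDTA. Reaction holds 0.6 nM IRAK4, 500 μM ATP and 1.6% DMSO in HEPES pH 7.2/MgCl2/Brij 35/DTT buffer; percent inhibition set against vehicle and no-enzyme controls.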

[1] = tested on: Human whole blood stimulated with a TLR2 agonist (lipoteichoic acid), IL-6 levels; experiment: IRAK4 Whole Blood Assay; format: cell-based; conditions: lipoteichoic acid 10 μg/mL
Method in brief: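 ACD-A-anticoagulated human whole blood was preincubated with compounds for 60 min at 37 °C under 5% CO2. It was then stimulated with 10 μg/mL lipoteichoic acid (final) in RPMI for 5 h. IL-6 in plasma supernatants was measured by flow cytometry bead assay.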

IRAK4, sequence (Q9NWZ3 whole entry, species assumed): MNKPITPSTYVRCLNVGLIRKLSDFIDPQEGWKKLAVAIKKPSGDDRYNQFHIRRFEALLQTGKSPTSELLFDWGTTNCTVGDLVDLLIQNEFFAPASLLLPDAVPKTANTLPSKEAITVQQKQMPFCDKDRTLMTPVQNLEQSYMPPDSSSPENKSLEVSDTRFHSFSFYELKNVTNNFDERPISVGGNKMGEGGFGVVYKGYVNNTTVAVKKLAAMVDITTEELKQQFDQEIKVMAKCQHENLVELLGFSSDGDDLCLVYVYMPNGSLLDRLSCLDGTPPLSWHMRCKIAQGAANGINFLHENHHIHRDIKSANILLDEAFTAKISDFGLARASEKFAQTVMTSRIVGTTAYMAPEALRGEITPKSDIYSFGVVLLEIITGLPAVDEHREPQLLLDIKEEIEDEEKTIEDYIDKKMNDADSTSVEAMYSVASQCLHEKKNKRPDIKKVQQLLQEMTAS

Row | IC50 (IRAK4) | EC50 ([1]; Homo sapiens) | EC50 [1] | SMILES
1 | 6 nM | 550 nM |  | CC[C@H](O)Cn1cc(-c2cnc(-n3ncc4cc(C#N)cnc43)cc2NC(C)C)nn1 [Example 134, (S)-1-(5-(1-(2-hydroxybutyl)-1H-1,2,3-triazol-4-yl)-4-(isopropylamino)pyridin-2-yl)-1H-pyrazolo[3,4-b]pyridine-5-carbonitrile]
2 | 3 nM | 1400 nM |  | CC(C)Nc1cc(-n2ncc3cc(C#N)cnc32)ncc1-c1cn([C@H]2CC[C@H](NC(=O)OC(C)(C)C)CC2)nn1 [Example 212, tert-butyl ((trans)-4-(4-(6-(5-cyano-1H-pyrazolo[3,4-b]pyridin-1-yl)-4-(isopropylamino)pyridin-3-yl)-1H-1,2,3-triazol-1-yl)cyclohexyl)carbamate]
3 | 13 nM | 2100 nM |  | CC(C)Nc1cc(-n2ncc3cc(C#N)cnc32)ncc1-c1cn([C@H]2CCN(C(=O)OC(C)(C)C)C[C@H]2O)nn1 [Example 176, (3R,4S)-tert-butyl 4-(4-(6-(5-cyano-1H-pyrazolo[3,4-b]pyridin-1-yl)-4-(isopropylamino)pyridin-3-yl)-1H-1,2,3-triazol-1-yl)-3-hydroxypiperidine-1-carboxylate]
4 | 3 nM | 1760 nM |  | CC(C)Nc1cc(-n2ncc3cc(C#N)cnc32)ncc1-c1cn(CCCCCO)nn1 [Example 125, 1-(5-(1-(5-hydroxypentyl)-1H-1,2,3-triazol-4-yl)-4-(isopropylamino)pyridin-2-yl)-1H-pyrazolo[3,4-b]pyridine-5-carbonitrile]
5 | 14 nM | 4700 nM |  | CC(C)Nc1cc(-n2ncc3cc(C#N)cnc32)ncc1-n1cc(C2CCN(C(=O)OC(C)(C)C)CC2)nn1 [Example 333, tert-butyl 4-(1-(6-(5-cyano-1H-pyrazolo[3,4-b]pyridin-1-yl)-4-(isopropylamino)pyridin-3-yl)-1H-1,2,3-triazol-4-yl)piperidine-1-carboxylate]
6 | 4 nM |  | 490 nM | CC(C)Nc1cc(-n2ncc3cc(C#N)cnc32)ncc1-c1cn(C2CCN(C)C2=O)nn1 (stereo not shown) [Example 22, 1-(4-(isopropylamino)-5-(1-(1-methyl-2-oxopyrrolidin-3-yl)-1H-1,2,3-triazol-4-yl)pyridin-2-yl)-1H-pyrazolo[3,4-b]pyridine-5-carbonitrile]
7 | 4 nM | 550 nM |  | CC(C)Nc1cc(-n2ncc3cc(C#N)cnc32)ncc1-c1cn([C@@H]2CCN(S(C)(=O)=O)C[C@H]2O)nn1 (single isomer, unassigned) [Example 199]
8 | 7 nM | 830 nM |  | CC(C)Nc1cc(-n2ncc3cc(C#N)cnc32)ncc1-c1cn(CC(O)C(F)(F)F)nn1 (stereo not shown) [Example 129, 1-(4-(isopropylamino)-5-(1-(3,3,3-trifluoro-2-hydroxypropyl)-1H-1,2,3-triazol-4-yl)pyridin-2-yl)-1H-pyrazolo[3,4-b]pyridine-5-carbonitrile]
9 | 7 nM | 380 nM |  | CCCc1cn(-c2cnc(-n3ncc4cc(C#N)c(N)nc43)cc2NC2COC2)nn1 [Example 281, 6-amino-1-(4-(oxetan-3-ylamino)-5-(4-propyl-1H-1,2,3-triazol-1-yl)pyridin-2-yl)-1H-pyrazolo[3,4-b]pyridine-5-carbonitrile]
10 | 4 nM | 330 nM |  | CC(C)Nc1cc(-n2ncc3cc(C#N)cnc32)ncc1-c1nnc(N[C@H]2CC[C@H](N)CC2)o1 [Example 434, 1-(5-(5-(((1R,4R)-4-aminocyclohexyl)amino)-1,3,4-oxadiazol-2-yl)-4-(isopropylamino)pyridin-2-yl)-1H-pyrazolo[3,4-b]pyridine-5-carbonitrile]
11 | 10 nM | 520 nM |  | CC(C)Nc1cc(-n2ncc3cc(C#N)cnc32)ncc1-c1cn([C@H]2CCN(C(=O)c3ccccn3)C[C@H]2O)nn1 [Example 183, 1-(5-(1-((3R,4S)-3-hydroxy-1-picolinoylpiperidin-4-yl)-1H-1,2,3-triazol-4-yl)-4-(isopropylamino)pyridin-2-yl)-1H-pyrazolo[3,4-b]pyridine-5-carbonitrile]
12 | 3 nM | 610 nM |  | CC(C)Nc1cc(-n2cnc3cc(C#N)cnc32)ncc1-c1cn(CCc2ccccc2)nn1 [Example 57, 3-(4-(isopropylamino)-5-(1-phenethyl-1H-1,2,3-triazol-4-yl)pyridin-2-yl)-3H-imidazo[4,5-b]pyridine-6-carbonitrile]
13 | 6 nM |  | 460 nM | CC(C)Nc1cc(-n2ncc3cnc(N)nc32)ncc1-n1cc(CCC(C)(C)O)nn1 [Example 380, 4-(1-(6-(6-amino-1H-pyrazolo[3,4-d]pyrimidin-1-yl)-4-(isopropylamino)pyridin-3-yl)-1H-1,2,3-triazol-4-yl)-2-methylbutan-2-ol]
14 | 20 nM | 460 nM |  | COC(=O)NCCc1cn(-c2cnc(-n3ncc4cc(C#N)cnc43)cc2NC(C)C)nn1 [Example 352, methyl (2-(1-(6-(5-cyano-1H-pyrazolo[3,4-b]pyridin-1-yl)-4-(isopropylamino)pyridin-3-yl)-1H-1,2,3-triazol-4-yl)ethyl)carbamate]
15 | 14 nM | 490 nM |  | CC(C)Nc1cc(-n2ncc3cc(C#N)c(N)nc32)ncc1-c1cn(CCCF)nn1 [Example 46, 6-amino-1-(5-(1-(3-fluoropropyl)-1H-1,2,3-triazol-4-yl)-4-(isopropylamino)pyridin-2-yl)-1H-pyrazolo[3,4-b]pyridine-5-carbonitrile]
16 | 12 nM | 2210 nM |  | CC(C)Cn1cnc(-c2cnc(-n3ncc4cc(C#N)cnc43)cc2NC(C)C)c1 [Example 221, 1-(5-(1-isobutyl-1H-imidazol-4-yl)-4-(isopropylamino)pyridin-2-yl)-1H-pyrazolo[3,4-b]pyridine-5-carbonitrile]
17 | 4 nM | 410 nM |  | CC(C)(O)CCC1CC(c2cnc(-n3ncc4cc(C#N)cnc43)cc2NCC(F)F)=NO1 (stereo not shown) [Example 442, 1-(4-((2,2-difluoroethyl)amino)-5-(5-(3-hydroxy-3-methylbutyl)-4,5-dihydroisoxazol-3-yl)pyridin-2-yl)-1H-pyrazolo[3,4-b]pyridine-5-carbonitrile]
18 | 4 nM | 810 nM |  | CC(C)Nc1cc(-n2ncc3cc(C#N)cnc32)ncc1-n1cc(C2CCC(N)CC2)nn1 (stereo not shown) [Example 340, 1-(5-(4-((1s,4s)-4-aminocyclohexyl)-1H-1,2,3-triazol-1-yl)-4-(isopropylamino)pyridin-2-yl)-1H-pyrazolo[3,4-b]pyridine-5-carbonitrile]
19 | 2 nM | 920 nM |  | CC(C)Nc1cc(-n2ncc3cc(C#N)cnc32)ncc1-n1cc(CCc2ccccc2)nn1 [Example 319, 1-(4-(isopropylamino)-5-(4-phenethyl-1H-1,2,3-triazol-1-yl)pyridin-2-yl)-1H-pyrazolo[3,4-b]pyridine-5-carbonitrile]
20 | 3 nM | 650 nM |  | COC(=O)NC1CCC(c2cn(-c3cnc(-n4ncc5cc(C#N)cnc54)cc3NC(C)C)nn2)CC1 (stereo not shown) [Example 344, methyl ((1s,4s)-4-(1-(6-(5-cyano-1H-pyrazolo[3,4-b]pyridin-1-yl)-4-(isopropylamino)pyridin-3-yl)-1H-1,2,3-triazol-4-yl)cyclohexyl)carbamate]
21 | 6 nM | 460 nM |  | CCS(=O)(=O)N1CCC(c2cn(-c3cnc(-n4ncc5cc(C#N)cnc54)cc3NC(C)C)nn2)CC1 [Example 346, 1-(5-(4-(1-(ethylsulfonyl)piperidin-4-yl)-1H-1,2,3-triazol-1-yl)-4-(isopropylamino)pyridin-2-yl)-1H-pyrazolo[3,4-b]pyridine-5-carbonitrile]
22 | 6 nM | 1310 nM |  | CC(C)Nc1cc(-n2ncc3cc(C#N)cnc32)ncc1-n1cc(CCCC#N)nn1 [Example 323, 1-(5-(4-(3-cyanopropyl)-1H-1,2,3-triazol-1-yl)-4-(isopropylamino)pyridin-2-yl)-1H-pyrazolo[3,4-b]pyridine-5-carbonitrile]
23 | 4 nM | 1540 nM |  | CC(C)Nc1cc(-n2cnc3cc(C#N)cnc32)ncc1-c1cn([C@@H]2CCC[C@H]2O)nn1 (single isomer, unassigned) [Example 81]
24 | 5 nM | 530 nM |  | CC(C)Nc1cc(-n2ncc3cc(C#N)cnc32)ncc1-c1cn(C[C@@H](O)c2ccccc2)nn1 [Example 84, (S)-1-(5-(1-(2-hydroxy-2-phenylethyl)-1H-1,2,3-triazol-4-yl)-4-(isopropylamino)pyridin-2-yl)-1H-pyrazolo[3,4-b]pyridine-5-carbonitrile]
25 | 4 nM | 1090 nM |  | CC(C)Nc1cc(-n2ncc3cc(C#N)cnc32)ncc1-c1cn(C2CN(C(=O)CC3CC3)C2)nn1 [Example 139, 1-(5-(1-(1-(2-cyclopropylacetyl)azetidin-3-yl)-1H-1,2,3-triazol-4-yl)-4-(isopropylamino)pyridin-2-yl)-1H-pyrazolo[3,4-b]pyridine-5-carbonitrile]
26 | 18 nM | 570 nM |  | CC(C)Nc1cc(-n2ncc3cc(C#N)cnc32)ncc1-n1cc(CCC#N)nn1 [Example 321, 1-(5-(4-(2-cyanoethyl)-1H-1,2,3-triazol-1-yl)-4-(isopropylamino)pyridin-2-yl)-1H-pyrazolo[3,4-b]pyridine-5-carbonitrile]
